The text below walks through data of patent US11512073B2, “Benzimidazole derivatives, pharmaceutical composition comprising the same, and use thereof” (Chongqing University of Arts and Sciences, priority 2020, dated 2022).

For one assay, the system named is MDA-MB-231 cells. Kind of assay: Annexin V-FITC/PI apoptosis assay by flow cytometry. It counts as cell-based, Human. The following applies: 48 h, dose-dependent; from 3.64% in control; p<0.01. As for the experimental part:
(§1) Cells in a logarithmic growth phase were harvested and seeded into six-well plates with 30% cell density and cultured overnight in an incubator. Once adhered to the bottom of the plate, cells were treated with different doses of compound 7a for 48 h, and then employed in flow cytometry analysis. For cell cycle assay, the collected cells were washed with phosphate-buffered saline (PBS) and fixed with 70% cold ethanol in 4° C. for 24 h. After washing three times of PBS, the fixed cells were incubated in 200 μL PBS solution containing 1 μL propidium iodide (BD, CA, USA) and 1 μL RNase (Sigma Aldrich, USA) at 37° C. for 0.5 h. Finally, cells were analyzed using BD Accuri™ C6 flow cytometry (BD Biosciences, USA). For the cell apoptosis assay, after the cells were harvested and washed twice with PBS, the percentage of apoptotic cells were measured using an Annexin V-FITC/PI Apoptosis Assay Kit (BD Biosciences, USA). The BD Accuri™ C6 flow cytometry was used to analyze the apoptosis process. The FlowJo software was used to analyze the cell cycle arrest and apoptotic rate.
(In flow cytometry, cells or beads pass a laser one at a time.)

The next assay has as its system MDA-MB-468 cells. The description is as above. The following applies: 48 h, dose-dependent; from 5.02% in control; p<0.01. The class given is cell-based, Human. As for the experimental part: as §1
Assay [1] concerns MDA-MB-231 and MDA-MB-468 cells. The experiment in a line: Mitochondrial membrane potential (JC-1) assay. It counts as cell-based, Human. The following applies: 20 μM/L, 48 h. Here is the method:
The JC-1 Assay Kit (Beyotime) was used to monitor the alteration of mitochondrial membrane potential as the manufacturer's instructions. MDA-MB-231 and MDA-MB-468 cells were seeded in six-well plates with an appropriate density (2×10^5/mL) and then treated with compound 7a at various concentrations (0, 5, 10, 20 μM) for 48 h. Then 100 μL of JC-1 staining solution was added into 1 mL of medium and incubated for 20 min at cell incubator. The BD Accuri™ C6 flow cytometry was used to analyze the samples. Each experiment was carried out in triplicate, and the results were expressed as the mean±SD.

Assay [2] shares this test system. Kind of assay: Immunoblotting of cell cycle, apoptosis, autophagy and DDR proteins. The class given is cell-based, Human. Here is the method: MDA-MB-231 and MDA-MB-468 cells were treated with the compound 7a (0, 5, 10 and 20 μmol/L) for 48 h, total protein was extracted using RIPA buffer (Beyotime, Shanghai, China) supplemented with protease/phosphatase inhibitor cocktail (Roche, Mannheim, Germany) at 4° C. for 30 min. The protein concentration was quantified by the BCA protein assay kit (Beyotime). Protein samples (50 μg) were separated by SDS-PAGE with appropriate gel concentration and subsequent electrophoretically transferred onto PVDF membranes (Millipore Corporation, MA, USA). After blocking with 5% BSA for 2 h at ambient temperature, the membranes sections were incubated gently with the indicated primary antibodies overnight at 4° C. and washed with TBST for 5×5 minutes. Subsequently, the membranes were then incubated with corresponding IRDye 800CW goat anti-mouse IgG (H+L) or IRDye 680LT donkey anti-rabbit IgG (H+L) secondary antibody for 1 h. The objective protein signal was obtained using an odyssey two-color infrared fluorescence imaging system (Li-cor, NE, USA). For immunoprecipitation, harvested cells were lysed in ice-cold NP-40 buffer including 50 mM Tris-HCl (pH 7.4), 150 mM NaCl, 0.5% NP-40, 1 mM Na3VO4, 50 mM NaF and protease inhibitor cocktail (Roche). Lysate was centrifuged at 12,000×g for 20 min at 4° C. The supernatant was incubated with anti-HA at 4° C. overnight, followed by incubation with Protein-A/G beads overnight (Beyotime). The proteins were washed six times with ice-cold NP-40 buffer and eluted with SDS loading buffer containing mercaptoethanol by boiling for 10 min.
For orientation: Immunoblotting shows a protein as a band on a membrane.

For assay [3] the test system is unchanged. The experiment in a line: Immunofluorescence of γH2AX and p62. It counts as cell-based, Human. As for the experimental part:
Cells were plated on glass coverslips in 24-well plates prior to treatment. After being exposed to different doses of compound 7a for 48 h, cells were washed with PBS for three times, fixed with 4% paraformaldehyde-PBS for 30 min, and then followed by permeabilization with 0.1% Triton X-100 for 10 min. Next, the samples were blocked with QuickBlock Blocking Buffer for Immunol Staining (Beyotime) for 30 min at 37° C., and incubated with anti-Ki67 (1:250), anti-LC3B antibody (1:250), anti-SQSTM1 antibody (1:250) or anti-γH2AX (1:250) overnight at 4° C. After washing with PBS three times, the stained cells were incubated with Alexa Fluor-conjugated secondary antibodies (1:2000) for 1 hour at room temperature. Moreover, 1 mg/mL DAPI dissolved in PBS were employed to label nuclei (30 min). Images were captured with a High Content analysis system (Perkinelmer, MA, USA).

A further assay has as its system MDA-MB-231 xenograft. Kind of assay: Animal xenograft model. The class given is in vivo, NOD/SCID mice. As for the experimental part:
For the in vivo assay, six-week-old female NOD/SCID mice weighing 16-20 g were used, which were maintained in the SPF (Specific Pathogen Free) laboratory animal environment and under a normal daily light/dark cycle. During the experiment, 1×10^7 MDA-MB-231 cells were suspended in 100 μL serum-free DMEM and injected subcutaneously into the left groin region of the mice. Tumor volume was measured regularly. On day 22 post-tumor implanted, the NOD/SCID mice were randomly divided into three groups (n=6) on the basis of their tumor volume to insure a similar starting tumor volume of all the groups. The appropriate dose of compound 7a (5 mg/kg, 15 mg/kg) dissolved in 100 μL solvent (10% ethanol, 40% PEG400 and 50% corn oil) was administered every 3 days by intraperitoneal injection when the xenograft tumor volume attained around 100 mm^3, while the control group received equal volume solvent every 3 days in a similar method. The tumor size was measured once every 3 days with a caliper, and tumor size was calculated using the standard formula (L×W^2)/2, where L and W represents the length and width, respectively. The mice were sacrificed on Day 46 (Day 25 after treatment), and the xenograft tumors were obtained and weighed. Then the tumor tissues were collected and divided into two portions, one was fixed in 4% PFA and embedded by paraffin for Hematoxylin & eosin (HE) and immunohistochemical staining, anther was performed immunoblotting.
For immunohistochemistry, the embedded samples were sectioned and incubated with anti-Ki-67 overnight at 4° C. Then, the sections were incubated with HRP labeled secondary antibody and were observed under the Olympus BX73 microscope. Five fields were randomly selected to evaluate the positivity.

Turning to `O=C(NC1CCCCC1)c1[nH]cnc1-c1nc2ccccc2[nH]1` [Compound 7a], the “proportion of late-phase apoptosis” value in the assay on MDA-MB-231 cells turned out to be 34.2%. Also, in the assay with MDA-MB-468 cells, the “proportion of late-phase apoptosis” value was 36.4%. Also, the “cells with reduced mitochondrial membrane potential” value in assay [1] is reported as around 50%. In assay [2] (TNBC cells), the p62 level result is given as “resulted in a p62 accumulation”. Moreover, in assay [2] (immunoblotting), the “expression of BRCA2, RAD51 and RNF8” value is listed as “significantly reduced”; the “levels of BRCA2 and RAD51” value is listed as “dramatically decreased levels of both proteins in a dose-dependent manner”; the “phosphorylation of ATM, NBS1 and SMC1” value is “activated”. For the same compound, in assay [2] (immunoblotting of fractions), the “p62 in nuclear and cytoplasmic proteins” value was “drastic p62 increase in the nucleus and cytoplasm in a dose-dependent manner”. Further, in assay [2] (immunoblotting, 48 h), the “P21 and phosphorylation levels of CHK1 (Serine 345) and CHK2 (Threonine 68)” value is “increased P21 and the phosphorylation levels of CHK1 (Serine 345) and CHK2 (Threonine 68) in a dose-dependent manner”; the “anti-apoptotic protein Bcl-2” value is “decrease of anti-apoptotic protein Bcl-2”; the “cytochrome c, cleaved caspase-3, cleaved caspase-9 and cleaved PARP” value was “increased in a dose-dependent manner”; the “levels of Cyclin A, Cyclin B, CDK1 and CDK2” value was “decreased the levels of Cyclin A, Cyclin B, CDK1 and CDK2”. The “pro-apoptotic proteins Bak, Bim and Bax” value in assay [2] (immunoblotting, 48 h) was “elevated in a dose-dependent manner”. Further, the γH2AX level entry in assay [2] (immunoblotting, dose-dependent) is reported as “significantly increased”. Moreover, the “conversion to LC3B-II” value in assay [2] (immunofluorescence and western blotting, dose- and time-dependent) was “significantly induced”. Moreover, the γH2AX foci result in assay [3] (48 h) was “accumulation of γH2AX foci in nuclei”. Also, the “p62 signal in nuclei” value in assay [3] (dose-dependent) was “accumulated in the nuclei”. Moreover, the “tumor growth (tumor volume and weight)” value in the assay with MDA-MB-231 xenograft (5 and 15 mg/Kg, intraperitoneal, after 24 days, dose dependent) is “considerably suppressed human TNBC tumor growth”. Further, the “size of harvested tumors” value with MDA-MB-231 xenograft (5 and 15 mg/kg, intraperitoneal, every 3 days) was “dramatically smaller than tumors from vehicle-treated control mice”. Besides, the “LC3B-II, p62, γH2AX and PARP in tumor tissue” value in the assay with MDA-MB-231 xenograft (immunoblotting of tumors, 5 and 15 mg/kg) is “concentration-dependent upregulation of LC3B-II, p62, γH2AX and PARP”. The “cell count (H&E) and Ki67 in tumor tissue” value in the assay on MDA-MB-231 xenograft (immunohistochemistry of tumors) is “significant decrease in cell count and Ki67”.
